Laboratory results as given in patent US20170042152A1, “SAFENED HERBICIDAL COMPOSITIONS COMPRISING PYRIDINE CARBOXYLIC ACIDS” (priority 2015, published 2017).

How the values were obtained:
[1] = tested on: bird's-eye speedwell (VERPE); assay: Greenhouse postemergence trial, weed efficacy; type: in vivo, Veronica persica; conditions: cloquintocet-mexyl 0 g ai/ha, 20-22 d
Protocol: (§1) Seeds of the desired test plant species were planted in Sun Gro MetroMix® 306 planting mixture, which typically has a pH of 6.0 to 6.8 and an organic matter content of about 30 percent, in plastic pots with a surface area of 103.2 square centimeters (cm^2). When required to ensure good germination and healthy plants, a fungicide treatment and/or other chemical or physical treatment was applied. The plants were grown for 7-36 days (d) in a greenhouse with an approximate 14-hour (h) photoperiod which was maintained at about 18° C. during the day and 17° C. during the night. Nutrients and water were added on a regular basis and supplemental lighting was provided with overhead metal halide 1000-Watt lamps as necessary. The plants were employed for testing when they reached the second or third true leaf stage.
(§2) Weighed amounts of technical material were dissolved in a volume of 97:3 volume per volume (v/v) acetone/dimethyl sulfoxide (DMSO) to stock solutions. […] Compound requirements are based upon a 12 milliliter (mL) application volume at a rate of 187 liters per hectare (L/ha). Stock solutions of the safeners were prepared following the same procedure. Spray solutions of the safeners and experimental compound mixtures were prepared by adding the stock solutions to the appropriate amount of dilution solution to form a 12 mL spray solution in two-way combinations. Formulated compounds were applied to the plant material with an overhead Mandel track sprayer equipped with 8002E nozzles calibrated to deliver 187 L/ha over an application area of 0.503 square meters (m^2) at a spray height of 18 inches (43 centimeters (cm)) above average plant canopy. Control plants were sprayed in the same manner with the solvent blank.
(§3) The treated plants and control plants were placed in a greenhouse as described above and watered by sub-irrigation to prevent wash-off of the test compounds. After 20-22 d, the condition of the test plants as compared with that of the control plants was determined visually and scored on a scale of 0 to 100 percent where 0 corresponds to no injury and 100 corresponds to complete kill. Colby's equation was used to determine the herbicidal effects expected from the mixtures.

[2] = tested on: Canada thistle (CIRAR); assay: Small plot field trial, weed growth reduction; type: in vivo, Cirsuim arvensis; conditions: 20 g ae/ha herbicide (triisopropanol amine salt), no safener, post-emergence, mean
[3] = tested on: spring barley (HORVS); assay: Greenhouse postemergence safening trial, crop phytotoxicity; type: in vivo, Hordeum vulgare; conditions: cloquintocet-mexyl 0 g ai/ha, 20-22 d
Protocol: as §1, §2, §3

[4] = tested on: shepherd's purse (CAPBP); assay: Greenhouse postemergence trial, weed efficacy; type: in vivo, Capsella bura-pastoris; conditions: herbicide 20 g ae/ha, cloquintocet-mexyl 0 g ai/ha, 20-22 d
Protocol: as §1, §2, §3

[5] = tested on: wild pansy (VIOTR); assay: Greenhouse postemergence trial, weed efficacy; type: in vivo, Viola tricolor; conditions: cloquintocet-mexyl 0 g ai/ha, 20-22 d
Protocol: as §1, §2, §3

[6] = tested on: Russian thistle (SASKR); assay: Greenhouse postemergence trial, weed efficacy; type: in vivo, Salsola iberica; conditions: cloquintocet-mexyl 0 g ai/ha, 20-22 d
Protocol: as §1, §2, §3

[7] = tested on: spring wheat (TRZAS); assay: Greenhouse postemergence safening trial, crop phytotoxicity; type: in vivo, Triticum aestivum; conditions: cloquintocet-mexyl 0 g ai/ha, 20-22 d
Protocol: as §1, §2, §3

[8] = tested on: winter wheat (TRZAW); assay: as above; type: in vivo, Triticum aestivum; conditions: herbicide 20 g ae/ha, cloquintocet-mexyl 0 g ai/ha, 20-22 d
Protocol: as §1, §2, §3

[9] = tested on: wild buckwheat (POLCO); assay: Greenhouse postemergence trial, weed efficacy; type: in vivo, Polygonum convulvus; conditions: cloquintocet-mexyl 0 g ai/ha, 20-22 d
Protocol: as §1, §2, §3

[10] = tested on: wild mustard (SINAR); assay: Greenhouse postemergence trial, weed efficacy; type: in vivo, Sinapis arvensis; conditions: herbicide 20 g ae/ha, cloquintocet-mexyl 0 g ai/ha, 20-22 d
Protocol: as §1, §2, §3

[11] = tested on: kochia (KCHSC); assay: Greenhouse postemergence trial, weed efficacy; type: in vivo, Kochia scoparia; conditions: cloquintocet-mexyl 0 g ai/ha, 20-22 d
Protocol: as §1, §2, §3

[12] = tested on: lambsquarters (CHEAL); assay: Small plot field trial, weed growth reduction; type: in vivo, Chenopodium album; conditions: 20 g ae/ha herbicide (triisopropanol amine salt), no safener, post-emergence, mean
[13] = tested on: winter wheat (TRZAW); assay: Small plot field trial, crop safety; type: in vivo, Triticum aestivum; conditions: 20 g ae/ha herbicide (triisopropanol amine salt), no safener, post-emergence, mean
Protocol: (§4) The triisopropanol amine salts of herbicides of formulas I-G-A, I-G-B and I-G-C were tested with and without cloquintocet-mexyl in small plot field trials across various ecozones to evaluate the crop safety of these compounds on […] cereals including winter wheat and durum wheat.
(§5) All herbicide treatments were applied post-emergence in the spring to early summer. Herbicides were applied with bicycle or tractor-mounted sprayers using carbon dioxide (CO2) as a propellant. The sprayers delivered a uniform spray pattern that provided thorough coverage of the foliage using a 150 or 200 L/ha spray volume. At the time of herbicide applications, winter wheat was at the two leaf growth stage and durum wheat was at the 2-3 leaf growth stage.
(§6) Phytotoxicity to cereal crops was visually assessed as percent overall injury, compared to an untreated control plot. The overall injury assessments were based on visual ratings of growth inhibition, chlorosis, and delay in maturity. At late ratings (54-57 days after application), percent visual seed head deformity and reduction in seed formation were also assessed. Trials were designed as randomized complete blocks with four replicates. In general, three to four replicates were assessed for each treatment.

[14] = tested on: durum wheat (TRZDU); assay: Small plot field trial, crop safety; type: in vivo, Triticum durum; conditions: 20 g ae/ha herbicide (triisopropanol amine salt), no safener, post-emergence, mean
Protocol: as §4, §5, §6

[15] = tested on: lambsquarters (CHEAL); assay: Greenhouse postemergence trial, weed efficacy; type: in vivo, Chenopodium album; conditions: herbicide 20 g ae/ha, cloquintocet-mexyl 0 g ai/ha, 20-22 d
Protocol: as §1, §2, §3

## CCc1nc(C(=O)O)c(Cl)c(N)c1F [formula I-G-A]
[1]; herbicide 4.375 g ae/ha
  % visual injury VERPE Ob: 0%
[1]; herbicide 8.75 g ae/ha
  % visual injury VERPE Ob: 7%
[1]; herbicide 17.5 g ae/ha
  % visual injury VERPE Ob: 23%
[1]; herbicide 35 g ae/ha
  % visual injury VERPE Ob: 50%
[1]; herbicide 70 g ae/ha
  % visual injury VERPE Ob: 77%
[2]
  Growth reduction of CIRAR, % of untreated: 95.5 % of untreated
[3]; herbicide 4.375 g ae/ha
  % visual injury HORVS Ob: 0%
[3]; herbicide 8.75 g ae/ha
  % visual injury HORVS Ob: 3%
[3]; herbicide 17.5 g ae/ha
  % visual injury HORVS Ob: 10%
[3]; herbicide 20 g ae/ha
  % visual injury HORVS Ob: 13%
[3]; herbicide 35 g ae/ha
  % visual injury HORVS Ob: 37%
[3]; herbicide 70 g ae/ha
  % visual injury HORVS Ob: 47%
[4]
  % visual injury CAPBP Ob: 100%
[5]; herbicide 4.375 g ae/ha
  % visual injury VIOTR Ob: 3%
[5]; herbicide 8.75 g ae/ha
  % visual injury VIOTR Ob: 20%
[5]; herbicide 17.5 g ae/ha
  % visual injury VIOTR Ob: 37%
[5]; herbicide 35 g ae/ha
  % visual injury VIOTR Ob: 65%
[5]; herbicide 70 g ae/ha
  % visual injury VIOTR Ob: 82%
[6]; herbicide 4.375 g ae/ha
  % visual injury SASKR Ob: 67%
[6]; herbicide 8.75 g ae/ha
  % visual injury SASKR Ob: 72%
[6]; herbicide 17.5 g ae/ha
  % visual injury SASKR Ob: 75%
[6]; herbicide 35 g ae/ha
  % visual injury SASKR Ob: 82%
[6]; herbicide 70 g ae/ha
  % visual injury SASKR Ob: 82%
[7]; herbicide 4.375 g ae/ha
  % visual injury TRZAS Ob: 0%
[7]; herbicide 8.75 g ae/ha
  % visual injury TRZAS Ob: 7%
[7]; herbicide 17.5 g ae/ha
  % visual injury TRZAS Ob: 33%
[7]; herbicide 35 g ae/ha
  % visual injury TRZAS Ob: 60%
[7]; herbicide 70 g ae/ha
  % visual injury TRZAS Ob: 70%
[8]
  % visual injury TRZAW Ob: 25%
[9]; herbicide 4.375 g ae/ha
  % visual injury POLCO Ob: 0%
[9]; herbicide 8.75 g ae/ha
  % visual injury POLCO Ob: 49%
[9]; herbicide 17.5 g ae/ha
  % visual injury POLCO Ob: 40%
[9]; herbicide 35 g ae/ha
  % visual injury POLCO Ob: 75%
[9]; herbicide 70 g ae/ha
  % visual injury POLCO Ob: 96%
[10]
  % visual injury SINAR Ob: 97%
[11]; herbicide 4.375 g ae/ha
  % visual injury KCHSC Ob: 13%
[11]; herbicide 8.75 g ae/ha
  % visual injury KCHSC Ob: 23%
[11]; herbicide 17.5 g ae/ha
  % visual injury KCHSC Ob: 32%
[11]; herbicide 35 g ae/ha
  % visual injury KCHSC Ob: 67%
[11]; herbicide 70 g ae/ha
  % visual injury KCHSC Ob: 67%
[12]
  Growth reduction of CHEAL, % of untreated: 100 % of untreated
[13]
  Instances of TRZAW grain reduction, % of untreated: 39.9 % of untreated
  TRZAW grain formation reduction, % of untreated: 27.9 % of untreated
[14]
  TRZDU Visual head deformation, % of untreated: 4.3 % of untreated
  TRZDU Visual injury, % of untreated: 5.7 % of untreated
[15]
  % visual injury CHEAL Ob: 85%

## CC(F)c1nc(C(=O)O)c(Cl)c(N)c1F (stereo not shown) [formula I-G-B]
[2]
  Growth reduction of CIRAR, % of untreated: 85 % of untreated
[12]
  Growth reduction of CHEAL, % of untreated: 100 % of untreated
[13]
  Instances of TRZAW grain reduction, % of untreated: 83.3 % of untreated
  TRZAW grain formation reduction, % of untreated: 68.3 % of untreated
[14]
  TRZDU Visual head deformation, % of untreated: 6.4 % of untreated
  TRZDU Visual injury, % of untreated: 6.4 % of untreated
